Like-named read-outs stand apart in the source and are kept apart here.
Key:
[1] = format: in vivo, human; conditions: for AUC / Cmax: geometric mean (CV%); for Tmax: median (min‐max); for half-life: arithmetic mean (SD)
CYP3A [2] = assay: Cocktail DDI study: effect of zanubrutinib on CYP3A probe midazolam; format: in vivo, human
CYP3A4 [3] = conditions: cited from earlier work
CYP2C19 [4] = assay: Cocktail DDI study: effect of zanubrutinib on CYP2C19 probe omeprazole; format: in vivo, human
BCRP = assay: Cocktail DDI study: effect of zanubrutinib on BCRP probe rosuvastatin; format: in vivo, human; conditions: rosuvastatin with/without zanubrutinib 160 mg b.i.d.
[5] = Plasma PK of zanubrutinib alone and with omeprazole 20 mg; format: in vivo; conditions: male, human, oral
Safety analyses = format: in vivo, human; conditions: for incidence of TEAEs: 17 subjects
CYP2B6 [6] = assay: CYP mRNA induction in human hepatocytes; format: in vitro ADME; conditions: according to FDA guidance, in vitro
P‐glycoprotein (P‐gp) [7] = assay: In vitro transporter inhibition; format: in vitro ADME; conditions: 160 mg zanubrutinib b.i.d.; FDA cutoff 10
[8] = system: breast cancer resistance protein (BCRP); assay: In vitro transporter inhibition; format: in vitro ADME; conditions: 160 mg zanubrutinib b.i.d.; FDA cutoff 10
CYP2C8 [9] = conditions: human liver microsomes, reversible inhibition; cited from earlier work
CYP2C9 [10] = conditions: human liver microsomes, reversible inhibition; cited from earlier work
CYP2C19 [11] = conditions: human liver microsomes, reversible inhibition; cited from earlier work
CYP2B6 [12] = conditions: at 3 and 30 μM, human hepatocytes; cited from earlier work
CYP2C8 [13] = conditions: at 3 and 30 μM, human hepatocytes; cited from earlier work
CYP2C9 [14] = conditions: at 3 and 30 μM, human hepatocytes; cited from earlier work
CYP3A [15] = conditions: at 3 and 30 μM, human hepatocytes; cited from earlier work
P‐glycoprotein (P‐gp) [16] = conditions: concentrations up to 10.0 μM; cited from earlier work
[17] = system: breast cancer resistance protein (BCRP); conditions: concentrations up to 5.0 μM; cited from earlier work
OATP1B1 = conditions: concentrations up to 5.0 μM; cited from earlier work
OATP1B3 = conditions: concentrations up to 5.0 μM; cited from earlier work
[18] = system: organic anion transporter (OAT) 1; conditions: concentrations up to 5.0 μM; cited from earlier work
OAT3 = conditions: concentrations up to 5.0 μM; cited from earlier work
[19] = system: organic cation transporter (OCT) 2; conditions: concentrations up to 5.0 μM; cited from earlier work
[20] = oral, patients with B‐cell malignancies; cited from earlier work
[21] = cited from earlier work
CYP3A4/5 = conditions: cited from earlier work
CYP3A4 [22] = conditions: co‐administration with rifampicin; cited from earlier work
[23] = male, human, plasma, oral, AUC0‐t, probe drugs + zanubrutinib 160 mg b.i.d.
[24] = male, human, plasma, oral, Cmax, probe drugs + zanubrutinib 160 mg b.i.d.
[25] = male, human, plasma, oral, AUC0‐∞, probe drugs + zanubrutinib 160 mg b.i.d.
[26] = male, human, plasma, oral, AUC0‐∞, probe drugs only
[27] = male, human, plasma, oral, Cmax, probe drugs only
[28] = male, human, plasma, oral, t1/2, probe drugs only
[29] = probe drugs + zanubrutinib 160 mg b.i.d.
[30] = midazolam with/without zanubrutinib 160 mg b.i.d.
[31] = omeprazole with/without zanubrutinib 160 mg b.i.d.

`C[C@H]1O[C@@H](O[C@H]2[C@@H](O)C[C@H](O[C@H]3[C@@H](O)C[C@H](O[C@H]4CC[C@@]5(C)[C@H](CC[C@@H]6[C@@H]5C[C@@H](O)[C@]5(C)[C@@H](C7=CC(=O)OC7)CC[C@]65O)C4)O[C@@H]3C)O[C@@H]2C)C[C@H](O)[C@@H]1O` [Digoxin, digoxin] gave an AUC ([1]; male, human, plasma, oral, 0.25 mg, AUC0‐t, probe drugs only) of 6.54 ng·h/mL, an AUC [1, 23] of 7.28 ng·h/mL and a Cmax [1, 24] of 1.56 ng/mL. For the same compound, the Tmax ([1]; probe drugs only) was 1.00 (0.500–2.00) h.

With `Cc1ncc2n1-c1ccc(Cl)cc1C(c1ccccc1F)=NC2` [Midazolam, midazolam] the “within‐subject variation in Cmax and AUC” value ([1]; in vivo) was at most 17.6%, the AUC [1, 23] was 14.3 ng·h/mL and the AUC [1, 25] was 15 ng·h/mL. It also gave an AUC [1, 26] of 28.2 ng·h/mL, a Cmax [1, 24] of 7.12 ng/mL and a Cmax [1, 27] of 10.2 ng/mL. The half-life [1, 28] was 4.87 h, the Tmax [1, 29] was 0.500 (0.500–1.00) h and the “mean changes (decrease) to AUC0‐t, AUC0‐∞ and Cmax” value (CYP3A [2]; co‐administration of zanubrutinib) was “less than 50%”. For the same compound, the “Ratio of GLSM, AUC0‐t” value (CYP3A [2]; [30]) was 52.52%, the “Ratio of GLSM, AUC0‐∞” value (CYP3A [2]; [30]) was 52.58% and the “Ratio of GLSM, Cmax” value (CYP3A [2]; [30]) was 70.17%. The “mean AUC ratio of midazolam with and without rifampin” value (CYP3A4 [3]; 7 days of rifampin dosing) was 0.12 and the “mean AUC ratio of midazolam with and without rifampin” value (CYP3A4 [3]; 14 days of rifampin dosing) was 0.11.

With `COc1ccc2[nH]c([S+]([O-])Cc3ncc(C)c(OC)c3C)nc2c1` (stereo not drawn) [Omeprazole, omeprazole] the “within‐subject variation in AUC” value ([1]; in vivo) was 15%, the “within‐subject variation in Cmax” value ([1]; in vivo) was 35% and the AUC [1, 23] was 282 ng·h/mL. For the same compound, the Cmax [1, 24] was 182 ng/mL, the Cmax [1, 27] was 229 ng/mL and the Tmax ([1]; probe drugs only) was 2.00 (1.00–8.00) h. For the same compound, the “mean AUC0‐t lower with zanubrutinib co‐administration” value (CYP2C19 [4]; in vivo) was “approximately 36%”, the “mean Cmax lower with zanubrutinib co‐administration” value (CYP2C19 [4]; in vivo) was about 21% and the “Ratio of GLSM, AUC0‐t” value (CYP2C19 [4]; [31]) was 63.52%. The “Ratio of GLSM, Cmax” value (CYP2C19 [4]; [31]) was 79.5%.

With `CC(C)c1nc(N(C)S(C)(=O)=O)nc(-c2ccc(F)cc2)c1/C=C/[C@@H](O)C[C@@H](O)CC(=O)O` [Rosuvastatin, rosuvastatin] the “within‐subject variation in Cmax and AUC” value ([1]; in vivo) was at most 27.5%, the AUC [1, 23] was 32.9 ng·h/mL and the AUC [1, 25] was 34.4 ng·h/mL. It also gave an AUC [1, 26] of 41 ng·h/mL, a Cmax [1, 24] of 3.75 ng/mL and a Cmax [1, 27] of 3.47 ng/mL. For the same compound, the half-life ([1]; male, human, plasma, oral, t1/2, probe drugs + zanubrutinib 160 mg b.i.d.) was 11.2 h, the half-life [1, 28] was 12.9 h and the Tmax [1, 29] was 3.00 (1.50–4.05) h. The “Ratio of GLSM, AUC0‐t” value (BCRP) was 89.45%, the “Ratio of GLSM, AUC0‐∞” value (BCRP) was 89.29% and the “Ratio of GLSM, Cmax” value (BCRP) was 108%.

In the case of `CC(=O)C[C@@H](c1ccccc1)c1c(O)c2ccccc2oc1=O` [S‐warfarin], the Cmax [1, 29] is reported as 666 (22.2) ng/mL, the Tmax [1, 29] is reported as 1.00 (0.500–2.00) h and the Cmax ([1]; probe drugs only) is reported as 698 (14.9) ng/mL. The Tmax ([1]; probe drugs only) was 1.00 (0.500–4.00) h.

In the case of `C=CC(=O)N1CCC([C@@H]2CCNc3c(C(N)=O)c(-c4ccc(Oc5ccccc5)cc4)nn32)CC1` [Zanubrutinib, zanubrutinib], the Cmax ([5]; 20 mg) is reported as 233 ng/mL, the Tmax ([5]; 20 mg) is reported as 2 h and the half-life ([5]; 20 mg) is reported as 2.93 h. For the same compound, the AUC ([5]; 20 mg, AUC0‐t, with omeprazole 20 mg (Day 18), n = 17, geometric mean (CV%)) was 1070 ng·h/mL, the AUC ([5]; 20 mg, AUC0‐τ, with omeprazole 20 mg (Day 18), τ = 12 h, n = 16, geometric mean (CV%)) was 1080 ng·h/mL and the Cmax ([5]; 160 mg twice daily) was 231 ng/mL. The half-life ([5]; 160 mg twice daily) was 2.7 h, the AUC ([5]; 160 mg twice daily, AUC0‐τ, zanubrutinib only (Day 13), τ = 12 h, n = 16, geometric mean (CV%)) was 1050 ng·h/mL and the AUC ([5]; 160 mg, AUC0‐t, zanubrutinib 160 mg b.i.d. only (Day 13), n = 17, geometric mean (CV%)) was 1030 ng·h/mL. For the same compound, the tolerability (Safety analyses; 160 mg b.i.d. alone or co‐administered with probe drugs) was “generally well tolerated”, the “incidence of TEAEs” value (Safety analyses; probe drugs plus zanubrutinib) was 11.8% and the “incidence of TEAEs” value (Safety analyses; zanubrutinib only) was 11.8%. The “R3 value for induction” value (CYP2B6 [6]) was 0.55, the “ratio of intestinal concentration and in vitro IC50 ([I]2/IC50)” value (P‐glycoprotein (P‐gp) [7]) was […] and the “ratio of intestinal concentration and in vitro IC50 ([I]2/IC50)” value [8] was […]. The IC50 (CYP2C8 [9]) was […], the IC50 (CYP2C9 [10]) was […] and the IC50 (CYP2C19 [11]) was […]. For the same compound, the “increase in mRNA” value (CYP2B6 [12]) was at least 2 fold, the “increase in mRNA” value (CYP2C8 [13]) was at least 2 fold and the “increase in mRNA” value (CYP2C9 [14]) was at least 2 fold. For the same compound, the “increase in mRNA” value (CYP3A [15]) was at least 2 fold, the inhibition of transporter (P‐glycoprotein (P‐gp) [16]) was “neither a significant inhibitor” and the inhibition of transporter [17] was “nor a significant inhibitor”. For the same compound, the inhibition of transporter (OATP1B1) was “nor a significant inhibitor”, the inhibition of transporter (OATP1B3) was “nor a significant inhibitor” and the inhibition of transporter [18] was “nor a significant inhibitor”. The inhibition of transporter (OAT3) was “nor a significant inhibitor”, the inhibition of transporter [19] was “nor a significant inhibitor” and the “mean apparent terminal elimination half‐life (t1/2)” value [20] was 2 to 4 h. The solubility [21] was “pH‐dependent solubility”.

In the case of `COc1ccc(-n2nc(C(N)=O)c3c2C(=O)N(c2ccc(N4CCCCC4=O)cc2)CC3)cc1` [apixaban], the “fraction metabolized by CYP3A4/5” value (CYP3A4/5) is given as 15%.

For `O=C(NC[C@H]1CN(c2ccc(N3CCOCC3=O)cc2)C(=O)O1)c1ccc(Cl)s1` [rivaroxaban], the “fraction metabolized by CYP3A4/5” value (CYP3A4/5) is listed as ~ 18% and the “decrease in mean AUC” value (CYP3A4 [22]) is listed as about 50%.

From publication PMC8359458 (British Journal of Clinical Pharmacology, 2021)
